Measured values: US8772499B2, “TRPV3 modulators” (AbbVie Inc., priority 2011, dated 2014)
Where two headings read alike, the source gives them in different places.

Tests used:
[1] = biological target: T1, human TRPV3 (Homo sapiens, UniProt Q8NET8); assay: In vitro antagonism of recombinant human TRPV3 activation (FLIPR Tetra calcium assay); assay type: cell-based; conditions: HEK293 cells stably expressing human TRPV3, agonist 2-APB at 80 μM
T1 construct: expressed in transfected cells
T1 sequence (Q8NET8 1-790): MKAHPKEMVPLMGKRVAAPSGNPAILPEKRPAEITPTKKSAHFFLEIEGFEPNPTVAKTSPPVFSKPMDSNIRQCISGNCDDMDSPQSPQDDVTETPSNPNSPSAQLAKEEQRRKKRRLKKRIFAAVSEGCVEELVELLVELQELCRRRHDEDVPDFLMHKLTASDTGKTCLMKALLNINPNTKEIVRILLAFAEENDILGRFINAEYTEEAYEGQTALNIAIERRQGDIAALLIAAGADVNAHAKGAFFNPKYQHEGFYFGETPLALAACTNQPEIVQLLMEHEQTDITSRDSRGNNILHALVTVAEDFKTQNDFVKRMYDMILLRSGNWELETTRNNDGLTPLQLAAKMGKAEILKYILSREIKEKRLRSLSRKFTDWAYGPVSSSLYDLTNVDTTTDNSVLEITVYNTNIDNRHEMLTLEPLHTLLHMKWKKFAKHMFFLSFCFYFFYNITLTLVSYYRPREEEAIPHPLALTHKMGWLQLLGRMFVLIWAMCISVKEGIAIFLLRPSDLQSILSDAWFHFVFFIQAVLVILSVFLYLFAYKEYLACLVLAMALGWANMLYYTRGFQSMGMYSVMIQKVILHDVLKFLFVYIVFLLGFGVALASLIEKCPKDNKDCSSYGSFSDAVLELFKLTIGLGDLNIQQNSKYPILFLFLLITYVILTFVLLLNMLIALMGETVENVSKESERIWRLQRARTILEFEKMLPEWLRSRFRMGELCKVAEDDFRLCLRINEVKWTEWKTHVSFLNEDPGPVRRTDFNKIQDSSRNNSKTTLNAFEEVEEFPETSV
How it was run: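 Calcium flux read over a 10 min run: compound added at 10 s to Calcium-4-loaded human TRPV3-HEK293 cells, agonist 2-APB (80 μM, its EC80) after 3 min. IC50 derived from peak-minus-baseline signal as percentage of uninhibited 2-APB response, typically averaged over at least two runs.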

[2] = In vitro human microsomal stability assay; assay type: in vitro ADME; conditions: human, microsomes, 0.5 h, 0.5 μM, pH 7.4
How it was run: (§1)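 Sprague-Dawley rat or human liver microsomes; 37° C.; NADPH cofactor, also spiked into time-zero samples.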

[3] = In vitro rat microsomal stability assay; assay type: in vitro ADME, rat (Sprague-Dawley); conditions: Sprague-Dawley, rat, microsomes, 0.5 h, 0.5 μM, pH 7.4
How it was run: as §1

[4] = actual measured value shown parenthetically, in most cases average of at least two runs, read-out: IC50
[5] = reported range, read-out: IC50 (range class)

SMILES	IC50 [1, 4]	HUMAN MICROSOMAL STABILITY (% REMAINING AFTER 30 MINUTES) [2]	RAT MICROSOMAL STABILITY (% REMAINING AFTER 30 MINUTES) [3]	IC50 [1, 5]
OC(c1ccccn1)C1(c2ccc(F)c(C(F)(F)F)c2)CCC1 (stereo not drawn) [Example 15, {1-[4-fluoro-3-(trifluoromethyl)phenyl]cyclobutyl}(pyridin-2-yl)methanol]	0.31 µM	5.6%	1.2%	
OC(c1ccccn1)C1(c2ccc(C(F)(F)F)c(F)c2)CCC1 (stereo not drawn) [Example 17]	1.1 µM	21%	13%	
OC(c1ccccn1)C1(c2ccccn2)CCC1 (stereo not drawn) [Example 19, pyridin-2-yl(1-pyridin-2-ylcyclobutyl)methanol]	> 20 µM	>85%	76%	> 20 µM
OC(c1ccccn1)C1(c2cccnc2)CCC1 (stereo not drawn) [Example 20, pyridin-2-yl(1-pyridin-3-ylcyclobutyl)methanol]	> 20 µM	80%	81%	> 20 µM
OC(c1ccccn1)C1(c2ccncc2)CCC1 (stereo not drawn) [Example 21, pyridin-2-yl(1-pyridin-4-ylcyclobutyl)methanol]	> 20 µM	71%	52%	> 20 µM
OC(c1ccccn1)C1(c2cccc(Oc3ccccc3)c2)CCC1 (stereo not drawn) [Example 23, [1-(3-phenoxyphenyl)cyclobutyl](pyridin-2-yl)methanol]	0.93 µM	0.12%	0.69%	
OC(c1ccccn1)C1(c2ccc(Oc3ccccc3)cc2)CCC1 (stereo not drawn) [Example 24, [1-(4-phenoxyphenyl)cyclobutyl](pyridin-2-yl)methanol]	4.7 µM	20%	17%	
OC(c1ccccn1)C1(c2ccc(Cc3ccccc3)cc2)CCC1 (stereo not drawn) [Example 25, [1-(4-benzylphenyl)cyclobutyl](pyridin-2-yl)methanol]	1.18 µM	21%	1.3%	
O[C@H](c1ccccn1)C1(c2ccc(Cl)c(Cl)c2)CCC1 [Example 26, (S)-[1-(3,4-dichlorophenyl)cyclobutyl](pyridin-2-yl)methanol]	0.31 µM	6.3%	1.0%	
O[C@H](c1ccccn1)C1(c2ccc(C(F)(F)F)cc2F)CCC1 [Example 27, (S)-{1-[2-fluoro-4-(trifluoromethyl)phenyl]cyclobutyl}(pyridin-2-yl)-methanol]	1.4 µM	13%	15%	
O[C@H](c1ccccn1)C1(c2ccc(C(F)(F)F)cc2)CCC1 [Example 28, (S)-pyridin-2-yl{1-[4-(trifluoromethyl)phenyl]cyclobutyl}methanol]	0.44 µM	12%	13%	
O[C@H](c1ccccn1)C1(c2ccc(C(F)(F)F)c(F)c2)CCC1 [Example 29, (S)-{1-[3-fluoro-4-(trifluoromethyl)phenyl]cyclobutyl}(pyridin-2-yl)-methanol]	2.54 µM	5.3%	45%	
Cc1cccnc1[C@@H](O)C1(c2ccc(Cl)c(Cl)c2)CCC1 [Example 30, (S)-[1-(3,4-dichlorophenyl)cyclobutyl] (3-methylpyridin-2-yl)methanol]	1.72 µM	1.5%	0.98%	
O[C@H](c1ncccn1)C1(c2ccc(Cl)c(Cl)c2)CCC1 [Example 39, (S)-[1-(3,4-dichlorophenyl)cyclobutyl](pyrimidin-2-yl)methanol]	0.74 µM	51%	11%	
O[C@@H](c1ncccn1)C1(c2ccc(Cl)c(Cl)c2)CCC1 [Example 40, (R)-[1-(3,4-dichlorophenyl)cyclobutyl](pyrimidin-2-yl)methanol]	13.3 µM	68%	5.6%	
